# Results taken from patent US7815905B2, “Methods of increasing insulin sensitivity or decreasing insulin secretion by administering corticotropin releasing factor receptor-2 inhibitors” (Research Development Foundation, priority 2006, dated 2010).
# “Also recorded” adds a separate entry of the source. Ends that are not written are not given here.
# Key:
# Ucn 2 null mice [1] = assay: Glucose tolerance test (GTT) in Ucn 2 null mice; type: in vivo, mouse; conditions: fasted male Ucn 2 null mice; 0.1 μg/kg IP 20 min prior to glucose 2 g/kg
# Protocol: (§1) FIG. 1a-f: Metabolic phenotype of Ucn 2 null mice. […] The ability of the Ucn 2 null mice and wild type littermates to handle a glucose load was assessed using a standard glucose tolerance test (see example 1). Fasted male mice were injected intraperitoneally (IP) with glucose (2 g/kg body weight) and blood glucose levels were measured before and at 15, 30, 60, 90 and 120 min following glucose injection. […] Fasted male Ucn 2 null mice were injected IP with saline or with 0.1 μg/kg body weight Ucn 2, 20 min prior to glucose injection (2 g/kg body weight) and blood glucose levels were measured before and at 15, 30, 60 and 90 min following glucose injection. […] Fasted male wild type mice were injected IP with saline or with astressin2B (30 μg/kg body weight), 20 min prior to glucose injection (2 g/kg body weight), and blood glucose levels were measured before and at 15, 30, 60 and 90 min following glucose injection. (d) The enhanced glucose tolerance in the Ucn 2 null mice is not due to increased insulin secretion. Fasted male mice were injected with glucose (3 g/kg body weight, IP) and blood samples were collected at 2, 5, 15 and 30 min following glucose injection and insulin was measured by radioimmunoassay. […] Fasted male mice were injected with insulin (0.75 U/kg body weight, IP) and blood glucose levels were measured before and at 15, 30, 60 and 90 min following insulin injection. […]
# Ucn 2 null mice [2] = assay: Insulin tolerance test (ITT) in Ucn 2 null mice; type: in vivo, mouse; conditions: fasted male Ucn 2 null mice; 0.1 μg/kg IP 20 min prior to insulin 0.75 U/kg
# Protocol: as §1
# [3] = test system: insulin signaling in C2C12 myotubes; assay: Phosphorylation studies of insulin signaling in C2C12 myotubes; type: cell-based
# Protocol: FIG. 3a-l: Urocortin 2 effects on muscle glucose uptake are mediated by inhibition of insulin signaling. (a-f). Ucn 2 inhibits the insulin-induced Akt and ERK1/2 phosphorylation but not the insulin receptor phosphorylation. Differentiated C2C12 myotubes were pre-incubated with or without Ucn 2 peptide (0.1, 1 or 10 nM) for 1 hour prior to insulin treatment (10 nM, 5 min). Cell lystates were resolved using 4-12% gradient polyacrylamide gels. Gels were electrophorectically transferred to membranes and probed with antibodies specific for the phospho proteins pAkt (Ser 473), pERK1/2 or pIR (Tyr1146). Stimulation of Akt, ERK or insulin receptor (IR) activation was calculated by fold activation of the phosphorylated form normalized to total and compared with the untreated controls (a, d and f, graphs). […] (g-j) Ucn 2 treatment increases the phosphorylation of serine residue 307 and not the tyrosin phosphorylation of IRS-1. Myotube cells, treated with or without PKA inhibitor (H-89), were incubated with insulin and different concentrations of Ucn 2. IRS-1 immunoprecipitated proteins were electrophoresed as before and the immunoblots were probed for phosphorylated tyrosin (g), phosphorylated serine 307 IRS-1 (i) and total IRS-1 (g, i). […] (k) The effect of Ucn 2 on [^3H]2-deoxy-D-glucose uptake in differentiated C2C12 myotubes. Cells were incubated for 2 hours in low glucose, serum free medium and treated with Ucn 2 (0.1, 1 or 10 nM) or without (control) for 30 min prior to insulin administration (10 nM). Glucose uptake was measured 5 min following exposure to [^3H]2-deoxy-D-glucose. Non-specific uptake was measured by incubating muscle tissue with cytochalasin B, which binds to the glucose uptake transporter (GLUT) and inhibits glucose transport into the cell. Specific uptake was calculated by subtracting non specific from total glucose. (l) Schematic representation of the putative cellular mechanisms mediating the effect of Ucn 2 and CRFR2 on the insulin signaling and glucose uptake in skeletal muscle cells. * indicates p<0.05 vs. no treatment. # indicates p<0.05 vs. insulin treatment (b, d, f) or p<0.05 vs. insulin treatment and Ucn 2 (i).
# Differentiated C2C12 myotubes were pre-incubated with or without Ucn 2 peptide (0.1, 1 or 10 nM) for 1 hour prior to insulin treatment (10 nM, 5 min). Cells were harvested immediately in 100 μl of sample treatment buffer [STB, 50 mM Tris (pH 6.8), 100 mM dithiothreitol, 2% (wt/vol) sodium dodecyl sulfate, 0.1% (wt/vol) bromphenol blue, and 10% (wt/vol) glycerol]. The samples were boiled for 5 min, proteins were electrophoresed on 4-12% sodium dodecyl sulfate-polyacrylamide gradient gel (Invitrogen Life Technologies), subsequently transferred onto nitrocellulose membranes, and probed with antibodies specific for phosphorylated Akt (Ser 473, Cell Signaling Technology, Inc., Beverly, Mass.), phosphorylated ERK1/2-p42, 44 (Santa Cruz Biotechnology, Inc., Santa Cruz, Calif.), phosphorylated insulin receptor (Tyr 1146, Cell Signaling Technology, Inc.), or phosphorylated IRS1 (Ser 307, Upstate Cell Signaling Solutions, Lake placid, NY). The membranes were washed with phosphate buffer saline containing 0.05% (vol/vol) Tween 20 and incubated with horseradish peroxidase-conjugated anti mouse or rabbit IgG raised in sheep (Amersham Biotech Pharmacia). Immunoreactive proteins were visualized using Super Signal West Pico Chemiluminescent substrate (Pierce, Rockford, Ill.). The relative protein levels were determined using densitometry (Image quant 1.2) by probing the membranes with antibodies directed against total proteins.
# C2C12 myotubes = assay: [3H]2-deoxy-D-glucose uptake in C2C12 myotubes; type: cell-based; conditions: 0.1, 1 or 10 nM for 30 min prior to insulin 10 nM
# Protocol: FIG. 3a-l: Urocortin 2 effects on muscle glucose uptake are mediated by inhibition of insulin signaling. (a-f). Ucn 2 inhibits the insulin-induced Akt and ERK1/2 phosphorylation but not the insulin receptor phosphorylation. Differentiated C2C12 myotubes were pre-incubated with or without Ucn 2 peptide (0.1, 1 or 10 nM) for 1 hour prior to insulin treatment (10 nM, 5 min). Cell lystates were resolved using 4-12% gradient polyacrylamide gels. Gels were electrophorectically transferred to membranes and probed with antibodies specific for the phospho proteins pAkt (Ser 473), pERK1/2 or pIR (Tyr1146). Stimulation of Akt, ERK or insulin receptor (IR) activation was calculated by fold activation of the phosphorylated form normalized to total and compared with the untreated controls (a, d and f, graphs). […] (g-j) Ucn 2 treatment increases the phosphorylation of serine residue 307 and not the tyrosin phosphorylation of IRS-1. Myotube cells, treated with or without PKA inhibitor (H-89), were incubated with insulin and different concentrations of Ucn 2. […] Glucose uptake was measured 5 min following exposure to [^3H]2-deoxy-D-glucose. Non-specific uptake was measured by incubating muscle tissue with cytochalasin B, which binds to the glucose uptake transporter (GLUT) and inhibits glucose transport into the cell. Specific uptake was calculated by subtracting non specific from total glucose. […]
# [4] = 0.1, 1 or 10 nM for 1 hour prior to insulin 10 nM, 5 min
# [5] = IRS-1 immunoprecipitates, insulin and Ucn 2
substance,measurement,setting,value
"Ucn 2: Urocortin 2, member of the CRF family, CRFR2 agonist; synthetic peptide (IVLSLDVPIGLLQILLEQARARAAREQATTNARILARVGHC; ends and bridges not checked; UniProt Q96RP3 72-112, looked up)",blood glucose in glucose tolerance test,Ucn 2 null mice [1],restores blood glucose to wild type levels
same,blood glucose in insulin tolerance test,Ucn 2 null mice [2],restored blood glucose levels to those of wild type mice; also recorded: restores blood glucose to wild type levels
same,insulin-induced ERK1/2 phosphorylation,[3]; [4],reduces; also recorded: inhibited; also recorded: dose dependently inhibits
same,insulin-induced phosphorylation of Akt (Ser 473),[3]; [4],reduces; also recorded: inhibits the insulin-induced phosphorylation of Akt in a dose dependent fashion; also recorded: dose dependently inhibits
same,insulin-induced phosphorylation of the insulin receptor (Tyr1146),[3]; [4],no significant differences
same,phosphorylation of IRS-1 on serine residue 307,[3]; [5],greatly increases; also recorded: strongly increases
same,tyrosine phosphorylation of IRS-1 in response to insulin,[3]; [5],remains unchanged
same,insulin induced glucose uptake,C2C12 myotubes,reduces; also recorded: dose dependently inhibited
